Where a name gives a salt, the structure may show the parent alone.
Assays:
[1] = tested on: Target C; experiment: HiBiT protein abundance assay, Target C (K562 HiBiT knock-in); assay type: cell-based, human; details: HiBiT knock-in K562 cells, 24 hours, top dose 10 μM
How it was run: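 K562 HiBiT knock-in cells (10000/well) were treated 24 h at 37° C with a 10-point 3-fold dilution series (top 10 μM final, ≤0.25% DMSO). HiBiT luminescence was read after lytic LgBiT detection. Percent response used unmodified K562 and DMSO-treated knock-in controls, and IC50 came from a four-parameter fit at 50% of untreated.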

[2] = tested on: K562 cells; experiment: Cell Titer Glo 2.0 cell viability (toxicity) assay, K562; details: 500 cells/well, 72 hours

Row | SMILES | IC50 [1] | Effect of Exemplary Compounds on Cell Viability, K562 [2]
1 | Cn1cc2cc(-c3ccc4nc(C5CCNC6(CC6)C5)ncc4n3)c(O)cc2n1 (centres unmarked) [Compound 448, 5-(2-{4-azaspiro[2.5]octan-7-yl}pyrido[3,2-d]pyrimidin-6-yl)-2-methylindazol-6-ol] | 100 to 1000 nM | C (C represents 1000-9999 nM)
2 | Cc1nc2cc(O)c(-c3ccc4cc(N5CC[C@H](NC(C)(C)C)C5)ncc4n3)cc2o1 [Compound 450] | 1000 to 10000 nM | C (C represents 1000-9999 nM)
3 | Cc1c(O)c(-c2cc(Cl)c3cc(N4CCNCC4)cc(C)c3n2)cc2cn(C)nc12 [Compound 482, 5-[4-chloro-8-methyl-6-(piperazin-1-yl)577yrrolidi-2-yl]-2,7-dimethylindazol-6-ol hydrochloride] | 100 to 1000 nM | A (A represents <100 nM)
4 | Cc1cc2nc(-c3cc4cn(C)nc4c(C)c3O)cc(Cl)c2cc1N1CCNCC1 [Compound 484, 5-[4-chloro-7-methyl-6-(piperazin-1-yl)586yrrolidi-2-yl]-2,7-dimethylindazol-6-ol] | 1000 to 10000 nM | B (B represents 100-1000 nM)
5 | CNC1CCN(c2cc3c(Cl)cc(-c4cc5cn(C)nc5c(C)c4O)nc3cc2C)C1 (centres unmarked) [Compound 486, 5-{4-chloro-7-methyl-6-[3-(methylamino)pyrrolidin-1-yl]quinolin-2-yl}-2,7-dimethylindazol-6-ol] | 1000 to 10000 nM | B (B represents 100-1000 nM)

Continued, in another order:

Row | IC50 [1] | SMILES | Effect of Exemplary Compounds on Cell Viability, K562 [2]
6 | < 100 nM | Cc1c(O)c(-c2ccc3nc(N4CC[C@@H](NC5CC5)C4)ncc3n2)cc2cn(C)nc12 [Compound 438, 5-{2-[(3R)-3-(cyclopropylamino)pyrrolidin-1-yl]pyrido[3,2-d]pyrimidin-6-yl}-2,7-dimethylindazol-6-ol] | B (B represents 100-1000 nM)
7 | < 100 nM | Cc1c(O)c(-c2ccc3nc(N4CC[C@H](NC5CC5)C4)ncc3n2)cc2cn(C)nc12 [Compound 439, 5-{2-[(3S)-3-(cyclopropylamino)pyrrolidin-1-yl]pyrido[3,2-d]pyrimidin-6-yl}-2,7-dimethylindazol-6-ol] | B (B represents 100-1000 nM)
8 | < 100 nM | Cc1nc2c(C)c(O)c(-c3ccc4cc(N5CC[C@@H](NC6CC6)C5)ncc4n3)cc2o1 [Compound 440, 6-{6-[(3R)-3-(cyclopropylamino)pyrrolidin-1-yl]-1,7-naphthyridin-2-yl}-2,4-dimethyl-1,3-benzoxazol-5-ol] | B (B represents 100-1000 nM)
9 | 100 to 1000 nM | Cc1nc2c(C)c(O)c(-c3ccc4cc(N5CC[C@H](NC6CC6)C5)ncc4n3)cc2o1 [Compound 441, 6-{6-[(3S)-3-(cyclopropylamino)pyrrolidin-1-yl]-1,7-naphthyridin-2-yl}-2,4-dimethyl-1,3-benzoxazol-5-ol] | B (B represents 100-1000 nM)
10 | 100 to 1000 nM | Cn1cc2cc(-c3ccc4cc(N5CCC(NC(C)(C)C)C5)ncc4n3)c(O)cc2n1 (centres unmarked) [Compound 449, 5-{6-[3-(tert-butylamino)pyrrolidin-1-yl]-1,7-naphthyridin-2-yl}-2-methylindazol-6-ol] | B (B represents 100-1000 nM)

Source: patent US20250092065A1, “2-(INDAZOL-5-YL)-6-(PIPERIDIN-4-YL)-1,7-NAPHTHYRIDINE DERIVATIVES AND RELATED COMPOUNDS AS MODULATORS FOR SPLICING NUCLEIC ACIDS AND FOR THE TREATMENT OF PROLIFERATIVE DISEASES” (REMIX THERAPEUTICS INC., priority 2022, published 2025)
